Laboratory results: patent US10350210B2, “EGFR and ALK dual inhibitor” (PRECEDO PHARMACEUTICALS CO., LTD, priority 2015, dated 2019)

Tests used:
[1] = tested on: BaF3-FL-EGFR-Del19; experiment: Cell growth (Cell Titer-Glo viability), BaF3-FL-EGFR-Del19; assay type: cell-based; conditions: Mus musculus; BaF3-FL-EGFR-Del19 (EGFR delE746_A750 mutant kinase), 72 hrs
From the text: (§1) By testing the effect of the novel kinase inhibitors on the proliferation of cancer cells, the selectivity of the compounds of the present disclosure in inhibiting the proliferation of cancer cells was further assessed. In this example, human non-small cell lung cancer cell NCI-H1975 (expressing EGFR L858R/T790M double mutant gene), human skin squamous carcinoma cell A431 (expressing wild-type EGFR gene), non-small cell lung cancer NCI-H3255 (expressing EGFR L858R mutant gene), non-small cell lung cancer cell NCI-H3122 (expressing ALK gene), human non-small cell lung cancer cell A549 (expressing wild-type EGFR gene), human non-small cell lung cancer cell NCI-H2122 (expressing wild-type EGFR gene), human non-small cell lung cancer cell NCI-H460 (expressing wild-type EGFR gene), human non-small cell lung cancer cell PC-9 (expressing EGFR delE746_A750 mutant gene), Chinese hamster ovary cell CHO (Cricetulus griseus, hamster, Chinese, ovary), Chinese hamster lung cell CHL, human non-small cell lung cancer cell HCC827 (expressing mutant EGFR del19 gene), human lung adenocarcinoma cell HCC4006 (expressing mutant EGFR del19 gene), human non-small cell lung cancer cell NCI-H2228 (expressing wild-type ALK gene), and mouse primary B cell BaF3 were used, and the above cells were all purchased from ATCC (US). In addition, mouse BaF3-TEL-ALK (stably expressing ALK kinase), mouse BaF3-ALK-F1174L (stably expressing mutant ALK F1174L kinase), mouse BaF3-NPM-ALK (stably expressing ALK kinase), mouse BaF3-TEL-EGFR (stably expressing EGFR kinase), mouse BaF3-TEL-EGFR-T790M (stably expressing EGFR T790M mutant kinase), mouse BaF3-FL-EGFR-Del19 (stably expressing EGFR delE746_A750 mutant kinase), mouse BaF3-TEL-EGFR-L858R (stably expressing EGFR L858R mutant kinase), mouse BaF3-FL-EGFR-T790M-L858R (stably expressing EGFR T790M/L858R mutant kinase), mouse BaF3-TEL-INSR (stably expressing INSR protein), mouse BaF3-TEL-IGF1R (stably expressing IGF1R Protein), mouse BaF3-EML4-ALK (stably expressing EML4-ALK Protein), mouse BaF3-TEL-JAK3 (stably expressing JAK3 kinase protein), mouse BaF3-TEL-CSF1R (stably expressing CSF1R protein), and mouse BaF3-TEL-ALK-F1196M (stably expressing ALK F1196M mutant kinase) were also used in this example. The above cell lines were all established by our laboratory via the following process: kinase proteins or protein domain sequences of human ALK, ALK F1174L, EGFR, EGFR T790M, EGFR delE746_A750, EGFR L858, EGFR T790M/L858R, INSR, IGF1R, EML4-ALK, JAK3, CSF1R, ALK F1196M were amplified respectively by PCR, and were respectively inserted into MSCV-Puro vector (Clontech) with N-terminal TEL fragments and/or NPM fragments and/or TPR fragments; the resultants were stably transfected into mouse BaF3 cells by the means of retrovirus, and the IL-3 growth factors were removed, and eventually the ALK, ALK F1174L, EGFR, EGFR T790M, EGFR delE746_A750, EGFR L858, EGFR T790M/L858R, INSR, IGF1R, EML4-ALK, JAK3, CSF1R, ALK F1196M-transferred protein dependent cell lines were obtained.
(§2) The number of viable cells was determined quantitatively by a microplate reader using Cell Titer-Glo® (Promega, US) chemiluminescence cell viability assay kit.

[2] = tested on: NCI-H2228; experiment: Growth of cancer cells (Cell Titer-Glo viability), NCI-H2228; assay type: cell-based; conditions: Homo sapiens; NCI-H2228 (wild-type ALK), 72 hrs
From the text: as §1, §2

[3] = tested on: NCI-H1975; experiment: Growth of cancer cells (Cell Titer-Glo viability), NCI-H1975; assay type: cell-based; conditions: Homo sapiens; NCI-H1975 (EGFR L858R/T790M double mutant), 72 hrs
From the text: as §1, §2

[4] = tested on: CHO; experiment: Cell growth (Cell Titer-Glo viability), CHO; assay type: cell-based, Chinese hamster; conditions: Cricetulus griseus; CHO Chinese hamster ovary cell, 72 hrs; read-out: GI50
From the text: as §1, §2

[5] = tested on: HCC4006; experiment: Growth of cancer cells (Cell Titer-Glo viability), HCC4006; assay type: cell-based; conditions: Homo sapiens; HCC4006 (mutant EGFR del19), 72 hrs
From the text: as §1, §2

[6] = tested on: HCC827; experiment: Growth of cancer cells (Cell Titer-Glo viability), HCC827; assay type: cell-based; conditions: Homo sapiens; HCC827 (mutant EGFR del19), 72 hrs
From the text: as §1, §2

[7] = tested on: BaF3-TEL-EGFR-T790M; experiment: Cell growth (Cell Titer-Glo viability), BaF3-TEL-EGFR-T790M; assay type: cell-based; conditions: Mus musculus; BaF3-TEL-EGFR-T790M (EGFR T790M mutant kinase), 72 hrs
From the text: as §1, §2

[8] = tested on: BaF3; experiment: Cell growth (Cell Titer-Glo viability), BaF3; assay type: cell-based; conditions: BaF3 mouse primary B cell, 72 hrs
From the text: as §1, §2

[9] = tested on: CHL; experiment: Cell growth (Cell Titer-Glo viability), CHL; assay type: cell-based, Chinese hamster; conditions: Cricetulus griseus; CHL Chinese hamster lung cell, 72 hrs; read-out: GI50
From the text: as §1, §2

[10] = tested on: NCI-H2122; experiment: Growth of cancer cells (Cell Titer-Glo viability), NCI-H2122; assay type: cell-based; conditions: Homo sapiens; NCI-H2122 (wild-type EGFR), 72 hrs
From the text: as §1, §2

[11] = tested on: BaF3-ALK-F1174L; experiment: Cell growth (Cell Titer-Glo viability), BaF3-ALK-F1174L; assay type: cell-based; conditions: Mus musculus; BaF3-ALK-F1174L (mutant ALK F1174L kinase), 72 hrs
From the text: as §1, §2

[12] = tested on: A431; experiment: Growth of cancer cells (Cell Titer-Glo viability), A431; assay type: cell-based; conditions: Homo sapiens, A-431; A431 (wild-type EGFR), 72 hrs; read-out: GI50
From the text: as §1, §2

[13] = tested on: BaF3-TEL-ALK; experiment: Cell growth (Cell Titer-Glo viability), BaF3-TEL-ALK; assay type: cell-based; conditions: Mus musculus; BaF3-TEL-ALK (stably expressing ALK kinase), 72 hrs
From the text: as §1, §2

[14] = tested on: PC-9; experiment: Growth of cancer cells (Cell Titer-Glo viability), PC-9; assay type: cell-based; conditions: Homo sapiens; PC-9 (EGFR delE746_A750 mutant), 72 hrs
From the text: as §1, §2

[15] = tested on: NCI-H3122; experiment: Growth of cancer cells (Cell Titer-Glo viability), NCI-H3122; assay type: cell-based; conditions: Homo sapiens; NCI-H3122 (expressing ALK gene), 72 hrs; read-out: GI50
From the text: as §1, §2

[16] = tested on: A549; experiment: Growth of cancer cells (Cell Titer-Glo viability), A549; assay type: cell-based; conditions: Homo sapiens; A549 (wild-type EGFR), 72 hrs
From the text: as §1, §2

[17] = tested on: NCI-H3255; experiment: Growth of cancer cells (Cell Titer-Glo viability), NCI-H3255; assay type: cell-based; conditions: Homo sapiens; NCI-H3255 (EGFR L858R mutant), 72 hrs
From the text: as §1, §2

[18] = tested on: BaF3-NPM-ALK; experiment: Cell growth (Cell Titer-Glo viability), BaF3-NPM-ALK; assay type: cell-based; conditions: Mus musculus; BaF3-NPM-ALK (stably expressing ALK kinase), 72 hrs
From the text: as §1, §2

[19] = tested on: BaF3-TEL-INSR; experiment: Cell growth (Cell Titer-Glo viability), BaF3-TEL-INSR; assay type: cell-based; conditions: Mus musculus; BaF3-TEL-INSR (stably expressing INSR protein), 72 hrs
From the text: as §1, §2

[20] = tested on: BaF3-TEL-EGFR; experiment: Cell growth (Cell Titer-Glo viability), BaF3-TEL-EGFR; assay type: cell-based; conditions: Mus musculus; BaF3-TEL-EGFR (stably expressing EGFR kinase), 72 hrs
From the text: as §1, §2

SMILES | GI50 [1] [nM] | GI50 [2] [nM] | GI50 [3] [nM] | GI50 [5] [nM] | GI50 [6] [nM] | GI50 [7] [nM] | GI50 [8] [nM] | GI50 [10] [nM] | GI50 [11] [nM] | GI50 [12] [nM] | GI50 [13] [nM] | GI50 [14] [nM] | GI50 [15] [nM] | GI50 [16] [nM] | GI50 [17] [nM] | GI50 [18] [nM] | GI50 [19] [nM] | GI50 [20] [nM] | GI50 [4] [nM] | GI50 [9] [nM]
C=CC(=O)Nc1cc(Nc2ncc(Cl)c(Nc3ccccc3P(C)(C)=O)n2)c(OC)cc1N1CCN(CC)CC1 [Compound 47, N-(5-(5-chloro-4-(2-(dimethylphosphinoyl)phenylamino)pyrimidin-2-ylamino)-2-(4-ethylpiperazin-1-yl)-4-methoxyphenyl)acrylamide] | – | – | 26 | – | < 0.3 | – | > 10000 | – | – | – | 74 | 5 | 37 | 1700 | 140 | 310 | 72 | – | – | –
C=CC(=O)Nc1cc(Nc2ncc(Cl)c(Nc3ccccc3S(=O)(=O)C(C)C)n2)c(OC)cc1N1CCN(C)CC1 [Compound 2, N-(5-(5-chloro-4-(2-(isopropylsulfonyl)phenylamino)pyrimidin-2-ylamino)-4-methoxy-2-(4-methylpiperazin-1-yl)phenyl)acrylamide] | < 0.3 | 250 | 43 | – | 10 | 12 | 1600 | 3600 | 670 | 250 | > 10000 | 5 | 33 | 870 | – | – | – | 450 | 500 | 2000
C=CC(=O)Nc1cc(Nc2ncc(Cl)c(Nc3ccccc3S(=O)(=O)C(C)C)n2)c(OC)cc1N1CCN(CCF)CC1 [Compound 9, N-(5-(5-chloro-4-(2-(isopropylsulfonyl)phenylamino)pyrimidin-2-ylamino)-2-(4-(2-fluoroethyl)piperazin-1-yl)-4-methoxyphenyl)acrylamide] | < 0.3 | 260 | 59 | – | 35 | 47 | 2900 | 680 | 540 | 320 | > 10000 | 43 | 42 | 1300 | – | – | – | 650 | 1000 | 4300
C=CC(=O)Nc1cc(Nc2ncc(Cl)c(Nc3ccccc3S(=O)(=O)C(C)C)n2)c(OC)cc1N1CCNCC1 [Compound 4, N-(5-(5-chloro-4-(2-(isopropylsulfonyl)phenylamino)pyrimidin-2-ylamino)-4-methoxy-2-(piperazin-1-yl)phenyl) acrylamide] | 15 | 7.4 | 24 | – | 16 | 62 | 2000 | 1300 | 1500 | 430 | 8 | 45 | 7 | 2200 | – | – | – | – | > 10000 | 4900

Further compounds by falling GI50 [3], results first:

GI50 [1] [nM] | GI50 [2] [nM] | GI50 [3] [nM] | GI50 [5] [nM] | GI50 [6] [nM] | GI50 [7] [nM] | GI50 [8] [nM] | GI50 [10] [nM] | GI50 [11] [nM] | GI50 [12] [nM] | GI50 [13] [nM] | GI50 [14] [nM] | GI50 [15] [nM] | GI50 [16] [nM] | GI50 [17] [nM] | GI50 [18] [nM] | GI50 [19] [nM] | GI50 [20] [nM] | SMILES | GI50 [4] [nM] | GI50 [9] [nM]
6 | 200 | 240 | 260 | 51 | 18 | 340 | 880 | 310 | 540 | 15 | 27 | 29 | 330 | – | – | – | – | C=CC(=O)Nc1cc(Nc2ncc(Cl)c(Nc3ccccc3S(=O)(=O)C(C)C)n2)c(OC)cc1N1CCCCC1 [Compound 6, N-(5-(5-chloro-4-(2-(isopropylsulfonyl)phenylamino)pyrimidin-2-ylamino)-4-methoxy-2-(piperidin-1-yl)phenyl) acrylamide] | 360 | > 10000
– | – | 220 | – | 15 | – | > 10000 | – | – | – | 450 | 120 | 140 | 8600 | 350 | 600 | 920 | – | C=CC(=O)Nc1cc(Nc2ncc(Cl)c(Nc3ccccc3P(C)(C)=O)n2)c(OC)cc1N1CCC(N(C)C)CC1 [Compound 49, N-(5-(5-chloro-4-(2-(dimethylphosphinoyl)phenylamino)pyrimidin-2-ylamino)-2-(4-(dimethylamino)piperidin-1-yl)-4-methoxyphenyl)acrylamide] | – | –
– | – | 41 | – | 5 | – | 5300 | – | – | – | 190 | 32 | 78 | 5300 | 200 | 380 | 290 | – | C=CC(=O)Nc1cc(Nc2ncc(Cl)c(Nc3ccccc3P(C)(C)=O)n2)c(OC)cc1N1CCC(N2CCCCC2)CC1 [Compound 48, N-(5-(5-chloro-4-(2-(dimethylphosphinoyl)phenylamino)pyrimidin-2-ylamino)-4-methoxy-2-(4-(piperidin-1-yl)piperidin-1-yl)phenyl)acrylamide] | – | –
< 0.3 | 490 | 31 | – | < 3 | 10 | 1100 | 370 | 530 | 220 | > 10000 | < 3 | 11 | 600 | – | – | – | 500 | C=CC(=O)Nc1cc(Nc2ncc(Cl)c(Nc3ccccc3S(=O)(=O)N(C)C)n2)c(OC)cc1N1CCN(C)CC1 [Compound 32, N-(5-(5-chloro-4-(2-(N,N-dimethylsulfamido)phenylamino)pyrimidin-2-ylamino)-4-methoxy-2-(4-methylpiperazin-1-yl)phenyl)acrylamide] | 340 | 1600
